Bounds are passed on as bounds.

The values below come from patent US4761422A, “(2-amino-4-aryl-thiazole-5-yl)ethanols and their derivatives having diuretic activity and methods for preparing the same” (Lusofarmaco Istituto Lusofarmaco d'Italia SpA, priority 1986, dated 1988).

Data set [1] can be described thus: Acute toxicity in rat (DL50). Conditions: in vivo, ip.
Data set [2] in a line: Diuretic activity in rat (DA200, dosage causing doubling of the urinary volume), method of Fregnan et al. In kind it is in vivo. The following applies: po, os. An excerpt:
The diuretic activity has been determined according to the method by G. B. Fregnan et al., Gazzetta Medica Italiana 128, 384 (1969).
In the Table given hereinbelow the pharmacological data of some of the compounds according to the invention in comparison with thienyl acid are set forth.
*Dosage causing doubling of the urinary volume

In general, LD50 refers to the dose expected to kill half of the subjects tested. The low end stands for greater toxicity, the high end for lower toxicity. In data set [1], `CCN(CC)c1nc(-c2ccc(Cl)cc2)c(CCO)s1` [LR 440, 2-[2-diethylamino-4-(p-chlorophenyl)thiazole-5-yl]ethanol] gave an LD50 above 1000 mg/kg. The compound also gave an ED (doubling of urinary volume) in data set [2] of 100 mg/kg.
Regarding `CNc1nc(-c2ccc(Cl)cc2)c(CCOC(N)=O)s1` [LR 892, 2-[2-methylamino-4-(p-chlorophenyl)thiazole-5-yl]ethanol carbamate], the 50% lethal dose (LD50) in data set [1] is above 1000 mg/kg. The compound also had an ED (doubling of urinary volume) in data set [2] of 10 mg/kg.
The corresponding values for `NC(=O)NC(=O)OCCc1sc(N)nc1-c1ccc(Cl)cc1` [LR 856] are above 1000 mg/kg and 5 mg/kg.
`NC(=O)OCCc1sc(N)nc1-c1ccc(Cl)cc1` [LR 890, 2-[2-amino-4-(p-chlorophenyl)thiazole-5-yl]ethanol carbamate]: the LD50 in data set [1] was above 2000 mg/kg. Further, in data set [2], the ED (doubling of urinary volume) is 3 mg/kg.
The corresponding values for `CNc1nc(-c2ccc(Cl)cc2)c(CCO)s1` [LR 861, 2-[2-methylamino-4-(p-chlorophenyl)thiazole-5-yl]ethanol] are 750 mg/kg and 100 mg/kg.
Turning to `O=C(O)COc1ccc(C(=O)c2cccs2)c(Cl)c1Cl` [Thienyl acid, reference compound], the median lethal dose (LD50) in data set [1] worked out at 350 mg/kg. In data set [2], this compound showed an ED (doubling of urinary volume) of 100 mg/kg.
The corresponding values for `CCN(CC)c1nc(-c2ccc(Cl)cc2)c(CCOC(N)=O)s1` [LR 525, 2-[2-diethylamino-4-(p-chlorophenyl)thiazole-5-yl]ethanol carbamate] are above 2000 mg/kg and 3 mg/kg.
Compound `Nc1nc(-c2ccc(Cl)cc2)c(CCO)s1` [LR 409, 2-[2-amino-4-(p-chlorophenyl)thiazole-5-yl]ethanol] displayed a 50% lethal dose (LD50) in data set [1] of 280 mg/kg. The same compound registered an ED (doubling of urinary volume) in data set [2] of 30 mg/kg.
